Data taken from paper PMC7618104, “The GLP-1 analogue, exendin-4, improves bone material properties and strength through a central relay in ovariectomized mice” (American journal of physiology. Endocrinology and metabolism, 2025).

Tests used:
[1] = system: splenocytes isolated from BALB/c ovariectomized (OVX) mice; experiment: Osteoclast differentiation assay (TRAP staining); assay type: cell-based, mouse (BALB/cJRj); details: 10 nM Exendin-4, M-CSF + RANKL, 7 days
Procedure: To investigate the potential effect of Exendin-4 (Ex-4) on osteoclast differentiation, we used splenocytes isolated from BALB/c ovariectomized (OVX) mice (BALB/cJRj; Janvier Labs, Saint-Berthevin, France). Mice were ovariectomized at 12 weeks of age, and splenocytes were isolated 4 weeks post-ovariectomy. The splenocytes were cultured in osteoclast differentiation medium (α-MEM supplemented with 10% FBS, 100 U/mL penicillin/streptomycin, 50 ng/mL macrophage colony-stimulating factor (M-CSF, Bio-Techne, Noyal-Chatillon-sur-Seiche, France), and 30 ng/mL receptor activator of NF-κB ligand (RANKL, Bio-Techne) in the presence or absence of 10 nM Exendin-4. D-Ala2-GIP at a concentration of 10 nM was used as positive controls, as previously reported ([39]). Cells were cultured for 7 days, with media changes every 2 days. Osteoclast differentiation was evaluated by TRAP staining, as previously described ([39]).
Supplementary Figure S4 – Effect of Exendin-4 on osteoclast differentiation in vitro. Splenocytes were isolated from BALB/c ovariectomized (OVX) mice at 12 weeks of age, 4 weeks post-ovariectomy, and cultured in osteoclast differentiation medium containing M-CSF and RANKL, with or without 10 nM Exendin-4. Cells were cultured for 7 days, and osteoclast differentiation was assessed by TRAP staining.
D-Ala2-GIP was used at 10 nM and served as positive controls. […]

[2] = system: ovariectomized BALB/c mice; experiment: Plasma levels of calcitonin and bone remodeling markers (CTx-I, P1NP); assay type: in vivo, mouse (BALB/cJRj, female); details: 28 days, n=8; for Calcitonin (plasma) / P1NP (plasma) / CTx-I (plasma): mean ± SD
Procedure: (§1) Eight animals were randomly assigned to each group.
All animals received intraperitoneal administration of calcein green (10 mg/kg) 10 days and 2 days before sacrifice. Animals were housed in social groups and maintained in a 12 h:12 h light/dark cycle. They had free access to water and food. At necropsy, blood was collected by intracardiac aspiration into EDTA-treated tubes. Blood samples were centrifuged at 13,000 g for 15 min, aliquoted and stored at -80°C until plasma levels of exendin-4 (#EK-070-94, Phoenix pharmaceuticals, Burlingame, CA) and calcitonin (NBP3-06734, Bio-Techne Ltd, Abingdon, UK) were measured according to the manufacturer’s protocol. Plasma levels of the bone remodeling markers C-terminal telopeptide of collagen type I (CTx-I – RatLaps, Immunodiagnostic Systems Ltd, Boldon, UK) and N-terminal propeptide of type I collagen (P1NP - Rat/mouse P1NP, Immunodiagnostic Systems Ltd) were measured according to the manufacturers’ recommendation. Right femurs were wrapped in saline-soaked gauze and frozen at -20°C until use. Right tibiae were fixed in ethanol-based fixative and stored at 4°C until use. No specific inclusion or exclusion criteria were applied for animal selection. […] Additionally, correct implantation of the cerebral perfusion cannulas for icv-administered animals was verified at necropsy. All animals meeting these criteria were included in the study.

[3] = system: ovariectomized BALB/c mice; experiment: Bone ECM material evaluation by infrared microspectroscopy, midshaft femur; assay type: in vivo, mouse (BALB/cJRj, female); details: 28 days, n=8
Procedure: as §1
Distal halves of the right femur were embedded undecalcified in pMMA after dehydration and infiltration. One micrometer-thick cross-section of the midshaft femur was cut with an ultramicrotome (Leica EM UC7, Leica microsystems, Nanterre, France) and deposited on BaF2 windows. Spectral analysis was performed, using a Bruker Hyperion 3000 infrared microscope coupled to a Bruker Vertex 70 spectrometer equipped with a single element mercury cadmium telluride (MCT) detector, between double calcein labels, as indicator of bone formation site. Mid-infrared spectra were recorded at a resolution of 4 cm^-1 (Spectral range 850–2000 cm^-1), with 32 accumulations in transmission mode. Background spectra were collected under identical conditions from the same BaF2 windows at the beginning and end of each experiment to ensure instrument stability. Post-processing was performed using Matlab R2023b (The Mathworks, Natick, CA) and included Mie scattering correction, pMMA subtraction, normalization and denoising (Savitzky-Golay algorithm, degree 2, span 9) prior to second derivative spectroscopy and curve fitting routines as previously reported in detail ([35]). A signal-to-noise ratio was computed in the region 1850-2000 cm^-1 to ensure proper denoising and quality of FTIR spectra for subsequent second derivative and curve fitting. Bone ECM material parameters were: Phosphate/Amide ratio (area ratio of v1,v3 phosphate and amide I); mineral crystallinity/maturity (XST, area ratio of subbands located at subbands ~1030 cm^-1 and ~1020 cm^-1), carbonate/phosphate ratio (area ratio of v2 carbonate and v1,v3 phosphate), and collagen maturity (intensity ratio of subbands located at 1660 cm^-1/1690 cm^-1) ([35]).

exendin-4 [Ex-4]
osteoclast differentiation [1]: No significant differences in osteoclast differentiation | Calcitonin (plasma) ([2]; OVX + Ex-4, icv 70 pmol/day): 47 ± 10 pg/mL | P1NP (plasma) ([2]; OVX + Ex-4, icv 70 pmol/day): 28.0 ± 2.2 ng/mL | CTx-I (plasma) ([2]; OVX + Ex-4, icv 70 pmol/day, p<0.01 vs. OVX+Vehicle): 8.5 ± 1.7 ng/mL | P1NP (plasma) ([2]; OVX + Ex-4, s.c. ~700 pmol/day): 25.2 ± 4.0 ng/mL | Calcitonin (plasma) ([2]; OVX + Ex-4, s.c. ~700 pmol/day, p<0.001 vs. OVX+Vehicle): 111 ± 15 pg/mL | CTx-I (plasma) ([2]; OVX + Ex-4, s.c. ~700 pmol/day, p<0.05 vs. OVX+Vehicle): 11.7 ± 2.0 ng/mL | circulating calcitonin levels ([2]; icv Ex-4 70 pmol/day, OVX): no effects on circulating calcitonin levels | change in plasma CTX-I ([2]; icv Ex-4 70 pmol/day, vs OVX+vehicle, p=0.005): -38% | increase in plasma circulating calcitonin ([2]; s.c. Ex-4 ~700 pmol/day, vs OVX+vehicle, p<0.001): 152% | change in plasma CTX-I ([2]; s.c. Ex-4 ~700 pmol/day, vs OVX+vehicle, p=0.012): -20% | increase in collagen maturity (1660/1690 cm^-1 subband ratio) ([3]; icv Ex-4 70 pmol/day, OVX, p<0.001): 22% | bone mineral (material level) ([3]; s.c. Ex-4 ~700 pmol/day, OVX): not affected | increase in collagen maturity (1660/1690 cm^-1 subband ratio) ([3]; s.c. Ex-4 ~700 pmol/day, vs OVX+vehicle, p=0.005): 18%
